Laboratory results as given in US20070049564A1 (Wyeth, priority 2005, published 2007).
≈ marks a conversion by molar mass, not a printed value. Where two headings read alike, the source gives them in different places.

Tests used:
E. coli GC 2231 = test: MIC, broth microdilution; conditions: Escherichia coli
E. coli GC 2232 = test: MIC, broth microdilution; conditions: Escherichia coli
E. coli GC 2272 = test: MIC, broth microdilution; conditions: Escherichia coli
E. coli GC 4560 = test: MIC, broth microdilution; conditions: Escherichia coli
E. coli GC 6465 = test: MIC, broth microdilution; conditions: Escherichia coli
E. coli GC 3226 = test: MIC, broth microdilution; conditions: Escherichia coli
E. coli GC 2203 = test: MIC, broth microdilution; conditions: Escherichia coli
Experimental: Antimicrobial susceptibility testing. The in vitro activities of the antibiotics are determined by the broth microdilution method as recommended by the National Committee for Clinical Laboratory Standards (NCCLS) (1). Mueller-Hinton II broth (MHBII)(BBL Cockeysville, Md.) is the medium employed in the testing procedures. Microtiter plates containing serial dilutions of each antimicrobial agent are inoculated with each organism to yield the appropriate density (10^5 CFU/ml) in a 100 μl final volume. The plates are incubated for 18-22 hours at 35° C. in ambient air. […] Standard Pharmacological Test Procedures
Presented in Tables I-XIII are representative compounds of Formula I which were evaluated against a panel of 40 selected gram-positive and gram-negative bacteria strains by pre-incubation in water, mouse serum or human serum. Representative compounds were first incubated in mouse serum for an hour prior to the in vitro testing against a panel of selected gram-positive and gram-negative bacteria strains. All compounds were also pre-incubated in water for an hour prior to testing as control. Representative compounds of Formula I were incubated in human serum prior to MIC determination.

S. typhimurium GC 2172 = test: MIC, broth microdilution; conditions: Salmonella enterica, TYPHIMURIUM
S. aureus GC 6466 = test: MIC, broth microdilution; conditions: Staphylococcus aureus
S. aureus GC 6467 = test: MIC, broth microdilution; conditions: Staphylococcus aureus
S. aureus GC 4536 = test: MIC, broth microdilution; conditions: Staphylococcus aureus
S. aureus GC 6469 = test: MIC, broth microdilution; conditions: Staphylococcus aureus
E. faecalis GC 4555 = test: MIC, broth microdilution; conditions: Enterococcus faecalis
E. faecalis GC 2265 = test: MIC, broth microdilution; conditions: Enterococcus faecalis
E. faecalis GC 2267 = test: MIC, broth microdilution; conditions: Enterococcus faecalis
E. faecium GC 2243 = test: MIC, broth microdilution; conditions: Enterococcus faecium
S. pneumoniae* GC 4465 = test: MIC, broth microdilution; conditions: Streptococcus pneumoniae
S. agalactiae GC 4564 = test: MIC, broth microdilution; conditions: Streptococcus agalactiae
E. coli = test: Range of MIC for E. coli strains; conditions: Escherichia coli
Staph. = test: Range of MIC for Staph. strains, including MRSA; conditions: Staphylococcus aureus
[1] = read-out: MINIMAL INHIBITORY CONCENTRATION MIC, Human Serum
[2] = read-out: MINIMAL INHIBITORY CONCENTRATION MIC, Mouse Serum
[3] = read-out: MINIMAL INHIBITORY CONCENTRATION MIC, Water

With `CCC(=O)OCOC(=O)N(CC(=O)Nc1cc(N(C)C)c2c(c1O)C(=O)C1=C(O)[C@]3(O)C(=O)C(C(N)=O)=C(O)[C@@H](N(C)C)[C@@H]3C[C@@H]1C2)C(C)(C)C` [Example 49, ({[(2-{[(5aR,6aS,7S,10aS)-9-(aminocarbonyl)-4,7-bis(dimethylamino)-1,8,10a,11-tetrahydroxy-10,12-dioxo-5,5a,6,6a,7,10,10a,12-octahydrotetracen-2-yl]amino}-2-oxoethyl)(tert-butyl)amino]carbonyl}oxy)methyl propionate] the MIC (E. coli GC 2231; GC2231, read-out: MINIMAL INHIBITORY CONCENTRATION MIC, Human Serum) was 8 µg/mL (≈ 11.2 µM), the MIC (E. coli GC 2231; GC2231, read-out: MINIMAL INHIBITORY CONCENTRATION MIC, Mouse Serum) was 0.5 µg/mL (≈ 0.699 µM) and the MIC (E. coli GC 2231; GC2231, read-out: MINIMAL INHIBITORY CONCENTRATION MIC, Water) was 16 µg/mL (≈ 22.4 µM). For the same compound, the MIC (E. coli GC 2232; GC2232, read-out: MINIMAL INHIBITORY CONCENTRATION MIC, Human Serum) was 4 µg/mL (≈ 5.59 µM), the MIC (E. coli GC 2232; GC2232, read-out: MINIMAL INHIBITORY CONCENTRATION MIC, Mouse Serum) was 0.5 µg/mL (≈ 0.699 µM) and the MIC (E. coli GC 2232; GC2232, read-out: MINIMAL INHIBITORY CONCENTRATION MIC, Water) was 16 µg/mL (≈ 22.4 µM). It also gave an MIC (E. coli GC 2272; GC2272, read-out: MINIMAL INHIBITORY CONCENTRATION MIC, Human Serum) of 2 µg/mL (≈ 2.79 µM), an MIC (E. coli GC 2272; GC2272, read-out: MINIMAL INHIBITORY CONCENTRATION MIC, Mouse Serum) of 0.5 µg/mL (≈ 0.699 µM) and an MIC (E. coli GC 2272; GC2272, read-out: MINIMAL INHIBITORY CONCENTRATION MIC, Water) of 8 µg/mL (≈ 11.2 µM). For the same compound, the MIC (E. coli GC 4560; GC4560, read-out: MINIMAL INHIBITORY CONCENTRATION MIC, Human Serum) was 0.5 µg/mL (≈ 0.699 µM), the MIC (E. coli GC 4560; GC4560, read-out: MINIMAL INHIBITORY CONCENTRATION MIC, Mouse Serum) was 0.12 µg/mL (≈ 0.168 µM) and the MIC (E. coli GC 4560; GC4560, read-out: MINIMAL INHIBITORY CONCENTRATION MIC, Water) was 1 µg/mL (≈ 1.4 µM). The MIC (E. coli GC 6465; GC6465, read-out: MINIMAL INHIBITORY CONCENTRATION MIC, Human Serum) was 32 µg/mL (≈ 44.7 µM), the MIC (E. coli GC 6465; GC6465, read-out: MINIMAL INHIBITORY CONCENTRATION MIC, Mouse Serum) was 2 µg/mL (≈ 2.79 µM) and the MIC (E. coli GC 6465; GC6465, read-out: MINIMAL INHIBITORY CONCENTRATION MIC, Water) was greater than 64 µg/mL. For the same compound, the MIC (E. coli GC 3226; GC3226, read-out: MINIMAL INHIBITORY CONCENTRATION MIC, Human Serum) was 8 µg/mL (≈ 11.2 µM), the MIC (E. coli GC 3226; GC3226, read-out: MINIMAL INHIBITORY CONCENTRATION MIC, Mouse Serum) was 0.5 µg/mL (≈ 0.699 µM) and the MIC (E. coli GC 3226; GC3226, read-out: MINIMAL INHIBITORY CONCENTRATION MIC, Water) was 16 µg/mL (≈ 22.4 µM). The MIC (E. coli GC 2203; GC2203, read-out: MINIMAL INHIBITORY CONCENTRATION MIC, Human Serum) was 4 µg/mL (≈ 5.59 µM), the MIC (E. coli GC 2203; GC2203, read-out: MINIMAL INHIBITORY CONCENTRATION MIC, Mouse Serum) was 0.25 µg/mL (≈ 0.349 µM) and the MIC (E. coli GC 2203; GC2203, read-out: MINIMAL INHIBITORY CONCENTRATION MIC, Water) was 8 µg/mL (≈ 11.2 µM). For the same compound, the MIC (S. typhimurium GC 2172; [1]) was 32 µg/mL (≈ 44.7 µM), the MIC (S. typhimurium GC 2172; [2]) was 4 µg/mL (≈ 5.59 µM) and the MIC (S. typhimurium GC 2172; [3]) was greater than 64 µg/mL. For the same compound, the MIC (S. aureus GC 6466; GC6466, read-out: MINIMAL INHIBITORY CONCENTRATION MIC, Human Serum) was 0.12 µg/mL (≈ 0.168 µM), the MIC (S. aureus GC 6466; GC6466, read-out: MINIMAL INHIBITORY CONCENTRATION MIC, Mouse Serum) was 0.12 µg/mL (≈ 0.168 µM) and the MIC (S. aureus GC 6466; GC6466, read-out: MINIMAL INHIBITORY CONCENTRATION MIC, Water) was 0.12 µg/mL (≈ 0.168 µM). For the same compound, the MIC (S. aureus GC 6467; GC6467, read-out: MINIMAL INHIBITORY CONCENTRATION MIC, Human Serum) was 1 µg/mL (≈ 1.4 µM), the MIC (S. aureus GC 6467; GC6467, read-out: MINIMAL INHIBITORY CONCENTRATION MIC, Mouse Serum) was 1 µg/mL (≈ 1.4 µM) and the MIC (S. aureus GC 6467; GC6467, read-out: MINIMAL INHIBITORY CONCENTRATION MIC, Water) was 2 µg/mL (≈ 2.79 µM). It also gave an MIC (S. aureus GC 4536; GC4536, read-out: MINIMAL INHIBITORY CONCENTRATION MIC, Human Serum) of 0.25 µg/mL (≈ 0.349 µM), an MIC (S. aureus GC 4536; GC4536, read-out: MINIMAL INHIBITORY CONCENTRATION MIC, Mouse Serum) of 0.25 µg/mL (≈ 0.349 µM) and an MIC (S. aureus GC 4536; GC4536, read-out: MINIMAL INHIBITORY CONCENTRATION MIC, Water) of 0.25 µg/mL (≈ 0.349 µM). For the same compound, the MIC (S. aureus GC 6469; GC6469, read-out: MINIMAL INHIBITORY CONCENTRATION MIC, Human Serum) was 1 µg/mL (≈ 1.4 µM), the MIC (S. aureus GC 6469; GC6469, read-out: MINIMAL INHIBITORY CONCENTRATION MIC, Mouse Serum) was 1 µg/mL (≈ 1.4 µM) and the MIC (S. aureus GC 6469; GC6469, read-out: MINIMAL INHIBITORY CONCENTRATION MIC, Water) was 1 µg/mL (≈ 1.4 µM). The MIC (E. faecalis GC 4555; GC4555, read-out: MINIMAL INHIBITORY CONCENTRATION MIC, Human Serum) was 0.5 µg/mL (≈ 0.699 µM), the MIC (E. faecalis GC 4555; GC4555, read-out: MINIMAL INHIBITORY CONCENTRATION MIC, Mouse Serum) was 0.25 µg/mL (≈ 0.349 µM) and the MIC (E. faecalis GC 4555; GC4555, read-out: MINIMAL INHIBITORY CONCENTRATION MIC, Water) was 4 µg/mL (≈ 5.59 µM). The MIC (E. faecalis GC 2265; GC2265, read-out: MINIMAL INHIBITORY CONCENTRATION MIC, Human Serum) was 1 µg/mL (≈ 1.4 µM), the MIC (E. faecalis GC 2265; GC2265, read-out: MINIMAL INHIBITORY CONCENTRATION MIC, Mouse Serum) was 0.5 µg/mL (≈ 0.699 µM) and the MIC (E. faecalis GC 2265; GC2265, read-out: MINIMAL INHIBITORY CONCENTRATION MIC, Water) was 2 µg/mL (≈ 2.79 µM). For the same compound, the MIC (E. faecalis GC 2267; GC2267, read-out: MINIMAL INHIBITORY CONCENTRATION MIC, Human Serum) was 1 µg/mL (≈ 1.4 µM), the MIC (E. faecalis GC 2267; GC2267, read-out: MINIMAL INHIBITORY CONCENTRATION MIC, Mouse Serum) was 0.5 µg/mL (≈ 0.699 µM) and the MIC (E. faecalis GC 2267; GC2267, read-out: MINIMAL INHIBITORY CONCENTRATION MIC, Water) was 4 µg/mL (≈ 5.59 µM). It also gave an MIC (E. faecium GC 2243; GC2243, read-out: MINIMAL INHIBITORY CONCENTRATION MIC, Human Serum) of 0.25 µg/mL (≈ 0.349 µM), an MIC (E. faecium GC 2243; GC2243, read-out: MINIMAL INHIBITORY CONCENTRATION MIC, Mouse Serum) of 0.25 µg/mL (≈ 0.349 µM) and an MIC (E. faecium GC 2243; GC2243, read-out: MINIMAL INHIBITORY CONCENTRATION MIC, Water) of 0.5 µg/mL (≈ 0.699 µM). For the same compound, the MIC (S. pneumoniae* GC 4465; [1]) was 0.12 µg/mL (≈ 0.168 µM), the MIC (S. pneumoniae* GC 4465; [2]) was 0.12 µg/mL (≈ 0.168 µM) and the MIC (S. pneumoniae* GC 4465; [3]) was 0.12 µg/mL (≈ 0.168 µM). The MIC (S. agalactiae GC 4564; GC4564, read-out: MINIMAL INHIBITORY CONCENTRATION MIC, Human Serum) was 0.12 µg/mL (≈ 0.168 µM), the MIC (S. agalactiae GC 4564; GC4564, read-out: MINIMAL INHIBITORY CONCENTRATION MIC, Mouse Serum) was 0.12 µg/mL (≈ 0.168 µM) and the MIC (S. agalactiae GC 4564; GC4564, read-out: MINIMAL INHIBITORY CONCENTRATION MIC, Water) was 0.25 µg/mL (≈ 0.349 µM). The MIC (E. coli; 20 h, read-out: Range of MIC, E. coli (Mouse Serum)) was 0.25 to 2 µg/mL (≈ 0.349 to 2.79 µM), the MIC (E. coli; read-out: Minimum inhibitory concentration (MIC), E. coli (Human Serum)) was 4 to 32 µg/mL (≈ 5.59 to 44.7 µM) and the MIC (Staph.; MRSA, read-out: Range of MIC, Staph (Mouse Serum)) was 0.12 to 1 µg/mL (≈ 0.168 to 1.4 µM). It also gave an MIC (Staph.; MRSA, read-out: Range of MIC, Staph (Water)) of 0.12 to 2 µg/mL (≈ 0.168 to 2.79 µM), an MIC (Staph.; read-out: Minimum inhibitory concentration (MIC), Staph (Human Serum)) of 0.12 to 1 µg/mL (≈ 0.168 to 1.4 µM) and an MIC (Staph.; read-out: Minimum inhibitory concentration (MIC), Staph (Water)) of 0.12 to 2 µg/mL (≈ 0.168 to 2.79 µM).
